According to US10294202B2, “Pyrrolidinones as herbicides” (FMC Corporation, priority 2013, dated 2019):

Experiments:
[1] = test system: morningglory; experiment: Test A pre-/postemergence herbicide test; format: in vivo, Ipomoea spp.
Summary of the method: (§1)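 Directed soil spray to seeded pots (preemergence) or spray onto one- to two-leaf seedlings 2–10 cm tall (postemergence); loam/sand substrate throughout. Evaluated visually after about 10 days against untreated plants, 0 = no effect, 100 = complete control.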

[2] = test system: rice; experiment: Test C flooded paddy test; format: in vivo, Oryza sativa; conditions: Flood
Summary of the method: (§2)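 Visual injury scored against controls after 13 to 15 days in the greenhouse, using 0 (no effect) to 100 (complete control). Test compounds went straight into paddy water held 3 cm above the soil surface on 2-leaf-stage plants, with that flood depth maintained for the whole test.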

[3] = test system: sedge, umbrella; experiment: Test C flooded paddy test; format: in vivo, Cyperus difformis; conditions: Flood
Summary of the method: as §2

[4] = test system: barnyardgrass; experiment: Test C flooded paddy test; format: in vivo, Echinochloa crus-galli; conditions: Flood
Summary of the method: as §2

[5] = test system: kochia; experiment: Test A pre-/postemergence herbicide test; format: in vivo, Kochia scoparia; conditions: for Plant response rating, Kochia: 0 to 100 scale
Summary of the method: as §1

[6] = test system: ragweed; experiment: Test A pre-/postemergence herbicide test; format: in vivo, Ambrosia elatior; conditions: for Plant response rating, Ragweed: 0 to 100 scale
Summary of the method: as §1

[7] = test system: ryegrass, Italian; experiment: Test A pre-/postemergence herbicide test; format: in vivo, Lolium multiflorum; conditions: for Plant response rating, Ryegrass, Italian: 0 to 100 scale
Summary of the method: as §1

[8] = test system: lambsquarters; experiment: Test C pre-/postemergence herbicide test; format: in vivo, Chenopodium album
Summary of the method: (§3)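 Two application timings ran in parallel with identically formulated test chemicals (non-phytotoxic solvent, surfactant included): spray on seeded loam–sand soil, and spray on emerged plants 2 to 18 cm high. Evaluation at 13 to 15 days compared each species with controls, rated from 0 up to 100.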

[9] = test system: barnyardgrass; experiment: Test C pre-/postemergence herbicide test; format: in vivo, Echinochloa crus-galli
Summary of the method: as §3

[10] = 31 g ai/ha, scale of 0 to 100 where 0 is no effect and 100 is complete control, 13 to 15 days
[11] = 62 g ai/ha, scale of 0 to 100 where 0 is no effect and 100 is complete control, 13 to 15 days
[12] = 125 g ai/ha, scale of 0 to 100 where 0 is no effect and 100 is complete control, 13 to 15 days
[13] = 125 g ai/ha, visual rating, 0 no effect, 100 complete control, approximately 10 days, preemergence
[14] = Postemergence, 125 g ai/ha, 0 no effect, 100 complete control
[15] = Postemergence, 31 g ai/ha, scale 0 to 100 (0 no effect, 100 complete control)
[16] = Postemergence, 62 g ai/ha, scale 0 (no effect) to 100 (complete control)
[17] = Postemergence, 125 g ai/ha, scale 0 to 100 (0 no effect, 100 complete control)
[18] = Postemergence, 250 g ai/ha, scale 0 to 100 (0 no effect, 100 complete control)
[19] = Preemergence, 31 g ai/ha, scale 0 to 100, 0 is no effect and 100 is complete control
[20] = Preemergence, 62 g ai/ha, scale 0 to 100
[21] = Preemergence, 125 g ai/ha, scale 0 to 100 (0 no effect, 100 complete control)

Q: Which results are given for `O=C1NCC(c2ccc(F)cc2)C1C(=O)Nc1ccccc1F` (racemic) [Compound 16]?
A: Plant response rating, Morningglory ([1]; Postemergence, 125 g ai/ha, 0 to 100 scale, 0 no effect, 100 complete control): 0; Plant response rating, Morningglory ([1]; Postemergence, 500 g ai/ha, 0 to 100 scale (0 no effect, 100 complete control)): 10; Morningglory plant response rating ([1]; Preemergence, 125 g ai/ha, visual rating on 0 to 100 scale (0 no effect, 100 complete control)): 0; Plant response rating, Morningglory ([1]; preemergence, 500 g ai/ha, 0 to 100 scale): 0; Plant response rating, Rice [2, 10]: 0; Plant response rating, Rice [2, 11]: 0; Plant response rating, Rice [2, 12]: 0; Plant response rating, Rice ([2]; 250 g ai/ha, scale 0 to 100): 0; Plant response rating, Sedge, Umbrella [3, 10]: 0; Plant response rating, Sedge, Umbrella [3, 11]: 0; Plant response rating, Sedge, Umbrella [3, 12]: 0; Plant response rating, Sedge, Umbrella ([3]; 250 g ai/ha, scale 0 to 100): 0; Plant response rating, Barnyardgrass [4, 10]: 0; Plant response rating, Barnyardgrass [4, 11]: 0; Plant response rating, Barnyardgrass [4, 12]: 0; Plant response rating, Barnyardgrass ([4]; 250 g ai/ha, scale 0 to 100): 15

Q: Which “Plant response rating, Kochia” value [5, 13] does the source give for `O=C1NCC(c2ccc(F)cc2)C1C(=O)Nc1cccc(F)c1F` (racemic) [Compound 119] here?
A: 40

Q: What about the “Plant response rating, Kochia” value [5, 14] of the same compound?
A: 40

Q: What about the “Kochia plant response rating (0 to 100 scale, 0 is no effect, 100 is complete control)” value ([5]; Postemergence, 500 g ai/ha) of the same compound?
A: 50

Q: And the “Plant response rating, Kochia” value ([5]; preemergence, 500 g ai/ha)?
A: 60

Q: What about the “Plant response rating, Ragweed” value [6, 13] of the same compound?
A: 70

Q: What about the “Plant response rating, Ragweed” value [6, 14] of the same compound?
A: 20

Q: What about the “Ragweed plant response rating (0 to 100 scale, 0 is no effect, 100 is complete control)” value ([6]; Postemergence, 500 g ai/ha) of the same compound?
A: 30

Q: And the “Plant response rating, Ragweed” value ([6]; preemergence, 500 g ai/ha)?
A: 80

Q: And the “Plant response rating, Ryegrass, Italian” value [7, 13]?
A: 20

Q: And the “Plant response rating, Ryegrass, Italian” value [7, 14]?
A: 20

Q: And the “Ryegrass, Italian plant response rating (0 to 100 scale, 0 is no effect, 100 is complete control)” value ([7]; Postemergence, 500 g ai/ha)?
A: 40

Q: What about the “Plant response rating, Ryegrass, Italian” value ([7]; preemergence, 500 g ai/ha) of the same compound?
A: 60

Q: And the “Plant response rating, Lambsquarters” value [8, 15]?
A: 5

Q: What about the “Plant response rating, Lambsquarters” value [8, 16] of the same compound?
A: 50

Q: What about the “Plant response rating, Lambsquarters” value [8, 17] of the same compound?
A: 75

Q: What about the “Plant response rating, Lambsquarters” value [8, 18] of the same compound?
A: 70

Q: What about the “Lambsquarters plant response rating” value [8, 19] of the same compound?
A: 25

Q: And the “Plant response rating, Lambsquarters” value [8, 20]?
A: 60

Q: And the “Plant response rating, Lambsquarters” value [8, 21]?
A: 85

Q: What about the “Plant response rating (scale of 0 to 100), Lambsquarters” value ([8]; Preemergence, 250 g ai/ha) of the same compound?
A: 85

Q: And the “Plant response rating, Barnyardgrass” value [9, 15]?
A: 25

Q: And the “Plant response rating, Barnyardgrass” value [9, 16]?
A: 40

Q: And the “Plant response rating, Barnyardgrass” value [9, 17]?
A: 65

Q: And the “Plant response rating, Barnyardgrass” value [9, 18]?
A: 80

Q: And the “Barnyardgrass plant response rating” value [9, 19]?
A: 80

Q: And the “Plant response rating, Barnyardgrass” value [9, 20]?
A: 90

Q: What about the “Plant response rating, Barnyardgrass” value [9, 21] of the same compound?
A: 95

Q: What about the “Plant response rating (scale of 0 to 100; 0 is no effect, 100 is complete control), Barnyardgrass” value ([9]; Preemergence, 250 g ai/ha) of the same compound?
A: 98

Q: What about the “Plant response rating, Rice” value [2, 10] of the same compound?
A: 0

Q: What about the “Plant response rating, Rice” value [2, 11] of the same compound?
A: 0

Q: What about the “Plant response rating, Rice” value [2, 12] of the same compound?
A: 10

Q: What about the “Plant response rating, Rice” value ([2]; 250 g ai/ha, scale 0 to 100) of the same compound?
A: 20

Q: What about the “Plant response rating, Sedge, Umbrella” value [3, 10] of the same compound?
A: 0

Q: What about the “Plant response rating, Sedge, Umbrella” value [3, 11] of the same compound?
A: 0

Q: And the “Plant response rating, Sedge, Umbrella” value [3, 12]?
A: 0

Q: And the “Plant response rating, Sedge, Umbrella” value ([3]; 250 g ai/ha, scale 0 to 100)?
A: 0

Q: What about the “Plant response rating, Barnyardgrass” value [4, 10] of the same compound?
A: 30

Q: What about the “Plant response rating, Barnyardgrass” value [4, 11] of the same compound?
A: 50

Q: And the “Plant response rating, Barnyardgrass” value [4, 12]?
A: 60

Q: What about the “Plant response rating, Barnyardgrass” value ([4]; 250 g ai/ha, scale 0 to 100) of the same compound?
A: 75
